{
  "source": "patent US12239643B2",
  "about": "“Therapeutic agent for inflammatory diseases, autoimmune diseases, fibrotic diseases, and cancer diseases” (MEIJI SEIKA PHARMA CO., LTD., priority 2018, dated 2025)",
  "data": [
    {"tested_on": "PDE4", "test": "Evaluation of PDE4 inhibitory activity, scintillation proximity assay", "format": "biochemical", "details": "scintillation proximity assay; read-out: PDE4 Inhibitory Activity (Evaluation 1; concentration for the inhibition rate of 50%)", "method_in_brief": "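IC50 was derived from inhibition curves, referenced to an enzyme-free blank and a DMSO-only control. Compound, PDE4 preparation and tritiated cAMP reacted 120 min at RT in Tris-HCl buffer (pH 7.4) with MgCl2, EGTA and BSA; YSi-SPA beads with ZnSO4 bound product before scintillation counting.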", "units": {"IC50": "nM"}, "values": [
      {"smiles": "COC(C)c1cc(-c2nccs2)c2oc(N3CC4CC(C3)N4)nc2c1C(F)(F)F", "note": "(centres unmarked) [Example 185, 2-(3,6-Diazabicyclo[3.1.1]heptan-3-yl)-5-(1-methoxyethyl)-7-(thiazol-2-yl)-4-(trifluoromethyl)benzo[d]oxazole]", "IC50": "< 100"},
      {"smiles": "CCOC(=O)c1cc(-c2nccs2)c2oc(N3CC4CCC(C3)N4)nc2c1OC(F)(F)F", "note": "[Example 186, Ethyl 2-(3,8-diazabicyclo[3.2.1]octan-3-yl)-7-(thiazol-2-yl)-4-(trifluoromethoxy)benzo[d]oxazole-5-carboxylate]", "IC50": "< 100"},
      {"smiles": "CCOC(=O)c1cc(-c2nccs2)c2oc(N3CC4CC(C3)N4)nc2c1OC(F)(F)F", "note": "[Example 187, Ethyl 2-(3,6-diazabicyclo[3.1.1]heptan-3-yl)-7-(thiazol-2-yl)-4-(trifluoromethoxy)benzo[d]oxazole-5-carboxylate]", "IC50": "< 100"},
      {"smiles": "CCOC(=O)c1cc(-c2nccs2)c2oc(N3CC4CCCC(C3)N4)nc2c1OC(F)(F)F", "note": "[Example 188, Ethyl 2-(3,9-diazabicyclo[3.3.1]nonan-3-yl)-7-(thiazol-2-yl)-4-(trifluoromethoxy)benzo[d]oxazole-5-carboxylate]", "IC50": "< 100"},
      {"smiles": "O=C(O)c1cc(-c2nccs2)c2oc(N3CC4CCC(C3)N4)nc2c1OC(F)(F)F", "note": "[Example 189, 2-(3,8-Diazabicyclo[3.2.1]octan-3-yl)-7-(thiazol-2-yl)-4-(trifluoromethoxy)benzo[d]oxazole-5-carboxylic acid]", "IC50": "100 to 1000"},
      {"smiles": "O=C(O)c1cc(-c2nccs2)c2oc(N3CC4CC(C3)N4)nc2c1OC(F)(F)F", "note": "[Example 190, 2-(3,6-Diazabicyclo[3.1.1]heptan-3-yl)-7-(thiazol-2-yl)-4-(trifluoromethoxy)benzo[d]oxazole-5-carboxylic acid]", "IC50": "> 1000"},
      {"smiles": "O=C(O)c1cc(-c2nccs2)c2oc(N3CC4CCCC(C3)N4)nc2c1OC(F)(F)F", "note": "[Example 191, 2-(3,9-Diazabicyclo[3.3.1]nonan-3-yl)-7-(thiazol-2-yl)-4-(trifluoromethoxy)benzo[d]oxazole-5-carboxylic acid]", "IC50": "100 to 1000"},
      {"smiles": "O=C(c1cc(-c2nccs2)c2oc(N3CC4CCC(C3)N4)nc2c1OC(F)(F)F)N1CCC1", "note": "[Example 192, (2-(3,8-Diazabicyclo[3.2.1]octan-3-yl)-7-(thiazol-2-yl)-4-(trifluoromethoxy)benzo[d]oxazol-5-yl)(azetidin-1-yl)methanone]", "IC50": "< 100"},
      {"smiles": "CN(CCO)C(=O)c1cc(-c2nccs2)c2oc(N3CC4CCC(C3)N4)nc2c1OC(F)(F)F", "note": "[Example 193, 2-(3,8-Diazabicyclo[3.2.1]octan-3-yl)-N-(2-hydroxyethyl)-N-methyl-7-(thiazol-2-yl)-4-(trifluoromethoxy)benzo[d]oxazole-5-carboxamide]", "IC50": "< 100"},
      {"smiles": "O=C(c1cc(-c2nccs2)c2oc(N3CC4CCC(C3)N4)nc2c1OC(F)(F)F)N1CC(O)(C(F)(F)F)C1", "note": "[Example 194, (2-(3,8-Diazabicyclo[3.2.1]octan-3-yl)-7-(thiazol-2-yl)-4-(trifluoromethoxy)benzo[d]oxazol-5-yl)(3-hydroxy-3-(trifluoromethyl)azetidin-1-yl)methanone]", "IC50": "100 to 1000"},
      {"smiles": "CC(C)(O)c1cc(-c2nccs2)c2oc(N3CC4CC(C3)N4)nc2c1OC(F)(F)F", "note": "[Example 196, 2-(2-(3,6-Diazabicyclo[3.1.1]heptan-3-yl)-7-(thiazol-2-yl)-4-(trifluoromethoxy)benzo[d]oxazol-5-yl)propan-2-ol]", "IC50": "< 100"},
      {"smiles": "CC(C)(O)c1cc(-c2nccs2)c2oc(N3CC4CCCC(C3)N4)nc2c1OC(F)(F)F", "note": "[Example 197, 2-(2-(3,9-Diazabicyclo[3.3.1]nonan-3-yl)-7-(thiazol-2-yl)-4-(trifluoromethoxy)benzo[d]oxazol-5-yl)propan-2-ol]", "IC50": "< 100"},
      {"smiles": "COC(C)(C)c1cc(-c2nccs2)c2oc(N3CC4CCCC(C3)N4)nc2c1OC(F)(F)F", "note": "[Example 200, 2-(3,9-Diazabicyclo[3.3.1]nonan-3-yl)-5-(2-methoxypropan-2-yl)-7-(thiazol-2-yl)-4-(trifluoromethoxy)benzo[d]oxazole]", "IC50": "< 100"},
      {"smiles": "OCc1cc(-c2nccs2)c2oc(N3CC4CCC(C3)N4)nc2c1OC(F)(F)F", "note": "[Example 201, (2-(3,8-Diazabicyclo[3.2.1]octan-3-yl)-7-(thiazol-2-yl)-4-(trifluoromethoxy)benzo[d]oxazol-5-yl)methanol]", "IC50": "< 100"},
      {"smiles": "CC(O)c1cc(-c2nccs2)c2oc(N3CC4CCC(C3)N4)nc2c1OC(F)(F)F", "note": "(centres unmarked) [Example 202, 1-(2-(3,8-Diazabicyclo[3.2.1]octan-3-yl)-7-(thiazol-2-yl)-4-(trifluoromethoxy)benzo[d]oxazol-5-yl)ethan-1-ol]", "IC50": "< 100"},
      {"smiles": "CCC(O)c1cc(-c2nccs2)c2oc(N3CC4CCC(C3)N4)nc2c1OC(F)(F)F", "note": "(centres unmarked) [Example 204, 1-(2-(3,8-Diazabicyclo[3.2.1]octan-3-yl)-7-(thiazol-2-yl)-4-(trifluoromethoxy)benzo[d]oxazol-5-yl)propan-1-ol]", "IC50": "< 100"},
      {"smiles": "CC(C)C(O)c1cc(-c2nccs2)c2oc(N3CC4CCC(C3)N4)nc2c1OC(F)(F)F", "note": "(centres unmarked) [Example 205, 1-(2-(3,8-Diazabicyclo[3.2.1]octan-3-yl)-7-(thiazol-2-yl)-4-(trifluoromethoxy)benzo[d]oxazol-5-yl)-2-methylpropan-1-ol]", "IC50": "< 100"},
      {"smiles": "OC(c1cc(-c2nccs2)c2oc(N3CC4CCC(C3)N4)nc2c1OC(F)(F)F)C(F)F", "note": "(centres unmarked) [Example 206, 1-(2-(3,8-Diazabicyclo[3.2.1]octan-3-yl)-7-(thiazol-2-yl)-4-(trifluoromethoxy)benzo[d]oxazol-5-yl)-2,2-difluoroethan-1-ol]", "IC50": "< 100"},
      {"smiles": "OC(c1cc(-c2nccs2)c2oc(N3CC4CC(C3)N4)nc2c1OC(F)(F)F)C(F)F", "note": "(centres unmarked) [Example 207, 1-(2-(3,6-Diazabicyclo[3.1.1]heptan-3-yl)-7-(thiazol-2-yl)-4-(trifluoromethoxy)benzo[d]oxazol-5-yl)-2,2-difluoroethan-1-ol]", "IC50": "< 100"},
      {"smiles": "COC(c1cc(-c2nccs2)c2oc(N3CC4CCC(C3)N4)nc2c1OC(F)(F)F)C(F)F", "note": "(centres unmarked) [Example 209, 2-(3,8-Diazabicyclo[3.2.1]octan-3-yl)-5-(2,2-difluoro-1-methoxyethyl)-7-(thiazol-2-yl)-4-(trifluoromethoxy)benzo[d]oxazole]", "IC50": "< 100"},
      {"smiles": "COC(C)c1cc(-c2nccs2)c2oc(N3CC4CCC(C3)N4)nc2c1OC(F)(F)F", "note": "(centres unmarked) [Example 210, 2-(3,8-Diazabicyclo[3.2.1]octan-3-yl)-5-(1-methoxyethyl)-7-(thiazol-2-yl)-4-(trifluoromethoxy)benzo[d]oxazole]", "IC50": "< 100"},
      {"smiles": "COC(C)c1cc(-c2nccs2)c2oc(N3CC4CC(C3)N4)nc2c1OC(F)(F)F", "note": "(centres unmarked) [Example 211, 2-(3,6-Diazabicyclo[3.1.1]heptan-3-yl)-5-(1-methoxyethyl)-7-(thiazol-2-yl)-4-(trifluoromethoxy)benzo[d]oxazole]", "IC50": "< 100"},
      {"smiles": "CC(=O)c1cc(-c2nccs2)c2oc(N3CC4CCC(C3)N4)nc2c1OC(F)(F)F", "note": "[Example 213, 1-(2-(3,8-Diazabicyclo[3.2.1]octan-3-yl)-7-(thiazol-2-yl)-4-(trifluoromethoxy)benzo[d]oxazol-5-yl)ethan-1-one]", "IC50": "< 100"},
      {"smiles": "COC(C)(c1cc(-c2nccs2)c2oc(N3CC4CC(C3)N4)nc2c1OC(F)(F)F)C(F)(F)F", "note": "(centres unmarked) [Example 214, 2-(3,6-Diazabicyclo[3.1.1]heptan-3-yl)-7-(thiazol-2-yl)-5-(1,1,1-trifluoro-2-methoxypropan-2-yl)-4-(trifluoromethoxy)benzo[d]oxazole]", "IC50": "< 100"},
      {"smiles": "COC(C)(c1cc(-c2nccs2)c2oc(N3CC4CCC(C3)N4)nc2c1OC(F)(F)F)C(F)(F)F", "note": "(centres unmarked) [Example 215, 2-(3,8-Diazabicyclo[3.2.1]octan-3-yl)-7-(thiazol-2-yl)-5-(1,1,1-trifluoro-2-methoxypropan-2-yl)-4-(trifluoromethoxy)benzo[d]oxazole]", "IC50": "< 100"},
      {"smiles": "CC(O)(c1cc(-c2nccs2)c2oc(N3CC4CC(C3)N4)nc2c1OC(F)(F)F)C(F)(F)F", "note": "(centres unmarked) [Example 216, 2-(2-(3,6-Diazabicyclo[3.1.1]heptan-3-yl)-7-(thiazol-2-yl)-4-(trifluoromethoxy)benzo[d]oxazol-5-yl)-1,1,1-trifluoropropan-2-ol]", "IC50": "< 100"},
      {"smiles": "CC(O)(c1cc(-c2nccs2)c2oc(N3CC4CCC(C3)N4)nc2c1OC(F)(F)F)C(F)(F)F", "note": "(centres unmarked) [Example 217, 2-(2-(3,8-Diazabicyclo[3.2.1]octan-3-yl)-7-(thiazol-2-yl)-4-(trifluoromethoxy)benzo[d]oxazol-5-yl)-1,1,1-trifluoropropan-2-ol]", "IC50": "< 100"},
      {"smiles": "CCOC(c1ccc(-c2nccs2)c2oc(N3CC4CCC(C3)N4)nc12)C(F)(F)F", "note": "(centres unmarked) [Example 220, 2-(3,8-Diazabicyclo[3.2.1]octan-3-yl)-4-(1-ethoxy-2,2,2-trifluoroethyl)-7-(thiazol-2-yl)benzo[d]oxazole]", "IC50": "< 100"},
      {"smiles": "FC(F)(F)COC(c1ccc(-c2nccs2)c2oc(N3CC4CCC(C3)N4)nc12)C(F)(F)F", "note": "(centres unmarked) [Example 221, 2-(3,8-Diazabicyclo[3.2.1]octan-3-yl)-7-(thiazol-2-yl)-4-(2,2,2-trifluoro-1-(2,2,2-trifluoroethoxy)ethyl)benzo[d]oxazole]", "IC50": "< 100"},
      {"smiles": "COC(c1ccc(-c2nccs2)c2oc(N3CC4CCC(C3)N4)nc12)C(F)(F)F", "note": "(centres unmarked) [Example 222, 2-(3,8-Diazabicyclo[3.2.1]octan-3-yl)-7-(thiazol-2-yl)-4-(2,2,2-trifluoro-1-methoxyethyl)benzo[d]oxazole]", "IC50": "< 100"},
      {"smiles": "FC(F)(F)COC(c1ccc(-c2nccs2)c2oc(N3CC4CC(C3)N4)nc12)C(F)(F)F", "note": "(centres unmarked) [Example 223, 2-(3,6-Diazabicyclo[3.1.1]heptan-3-yl)-7-(thiazol-2-yl)-4-(2,2,2-trifluoro-1-(2,2,2-trifluoroethoxy)ethyl)benzo[d]oxazole]", "IC50": "< 100"},
      {"smiles": "CCOC(c1ccc(-c2nccs2)c2oc(N3CC4CC(C3)N4)nc12)C(F)(F)F", "note": "(centres unmarked) [Example 224, 2-(3,6-Diazabicyclo[3.1.1]heptan-3-yl)-4-(1-ethoxy-2,2,2-trifluoroethyl)-7-(thiazol-2-yl)benzo[d]oxazole]", "IC50": "< 100"}
    ]}
  ]
}
